Test results taken from patent publication US20110015162A1, “15,16-Methylene-17-hydroxy-19-nor-21-carboxylic acid-steroid Y-lactone derivative, use thereof and medicinal products containing the derivative” (Bayer Schering Pharma Aktiengesellschaft, priority 2007, published 2011).
Like-named read-outs stand apart in the source and are kept apart here.

Tests used:
[1] = target: T1, androgen receptor (Homo sapiens, UniProt P10275); test: Androgen receptor binding test; set-up: expressed in transfected cells; conditions: reference substance 3H-testosterone
T1 sequence (P10275 1-920): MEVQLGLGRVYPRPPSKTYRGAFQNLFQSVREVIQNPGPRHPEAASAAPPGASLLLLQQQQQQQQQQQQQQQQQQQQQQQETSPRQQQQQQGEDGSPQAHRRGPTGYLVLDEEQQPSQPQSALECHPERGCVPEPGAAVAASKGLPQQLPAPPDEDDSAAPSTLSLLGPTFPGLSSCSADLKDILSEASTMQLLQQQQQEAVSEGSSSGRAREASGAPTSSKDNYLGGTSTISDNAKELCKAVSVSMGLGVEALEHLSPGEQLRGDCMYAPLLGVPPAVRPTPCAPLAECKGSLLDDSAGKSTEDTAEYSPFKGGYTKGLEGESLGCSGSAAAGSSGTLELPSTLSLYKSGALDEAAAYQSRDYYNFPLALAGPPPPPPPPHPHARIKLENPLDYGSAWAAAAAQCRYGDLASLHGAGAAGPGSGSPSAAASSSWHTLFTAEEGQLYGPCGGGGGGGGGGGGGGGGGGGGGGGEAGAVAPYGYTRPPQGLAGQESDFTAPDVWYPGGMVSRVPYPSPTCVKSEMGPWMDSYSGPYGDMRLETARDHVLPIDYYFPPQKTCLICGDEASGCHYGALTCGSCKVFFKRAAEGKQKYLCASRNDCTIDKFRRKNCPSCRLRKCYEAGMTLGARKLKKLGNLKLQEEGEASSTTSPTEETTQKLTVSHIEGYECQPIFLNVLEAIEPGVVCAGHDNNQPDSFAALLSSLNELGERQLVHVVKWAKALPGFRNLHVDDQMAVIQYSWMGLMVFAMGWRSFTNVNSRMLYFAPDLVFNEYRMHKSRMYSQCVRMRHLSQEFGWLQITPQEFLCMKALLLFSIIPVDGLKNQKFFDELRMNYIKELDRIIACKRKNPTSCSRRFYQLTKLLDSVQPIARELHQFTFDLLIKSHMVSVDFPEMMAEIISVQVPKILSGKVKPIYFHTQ

[2] = target: T1, androgen receptor; test: Androgenic/antiandrogenic action by transactivation test (PC3 reporter cells); assay type: cell-based; set-up: expressed in transfected cells; host or cells: PC3 cells
Method: (§1) The test compounds were added eight hours later, and the cells were incubated with the compounds for 16 hours. The tests were carried out in triplicate. At the end of incubation the medium containing the effector was removed and replaced with lysis buffer. After luciferase assay substrate (Promega, #E1501) had been added, the 96-well plates were then put in a microplate luminometer (Pherastar, BMG Labtech), and the luminescence was measured. The IC50 values were evaluated using software for calculating dose-effect relations.
6. Determination of Androgenic/Antiandrogenic Action by Means of Transactivation Tests:
The androgenic/antiandrogenic action of the test substances was determined as for the transactivation tests described above.
The following modifications were made: In this case reporter cell lines were used (PC3 cells) that express the androgen receptor, and a reporter construct that contains luciferase under the control of a steroid hormone-responsive promoter.
For determination of the antiandrogenic efficacy, 0.05 nM R1881 was added to the cells, in order to achieve almost maximum stimulation of the reporter gene.

[3] = target: T2, mineralocorticoid receptor (Homo sapiens, UniProt P08235); test: Antimineralocorticoid action by transactivation test (MDCK reporter cells); assay type: cell-based; set-up: expressed in transfected cells; host or cells: MDCK cells; conditions: for Emax: read-out: Mineralocorticoid receptor Antagonism efficacy;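 for Emax: percent inhibition of the aldosterone-stimulated reporter signal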;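 for Mineralocorticoid receptor Antagonism efficacy: percent inhibition of the aldosterone-stimulated reporter signal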
T2 sequence (P08235 1-984): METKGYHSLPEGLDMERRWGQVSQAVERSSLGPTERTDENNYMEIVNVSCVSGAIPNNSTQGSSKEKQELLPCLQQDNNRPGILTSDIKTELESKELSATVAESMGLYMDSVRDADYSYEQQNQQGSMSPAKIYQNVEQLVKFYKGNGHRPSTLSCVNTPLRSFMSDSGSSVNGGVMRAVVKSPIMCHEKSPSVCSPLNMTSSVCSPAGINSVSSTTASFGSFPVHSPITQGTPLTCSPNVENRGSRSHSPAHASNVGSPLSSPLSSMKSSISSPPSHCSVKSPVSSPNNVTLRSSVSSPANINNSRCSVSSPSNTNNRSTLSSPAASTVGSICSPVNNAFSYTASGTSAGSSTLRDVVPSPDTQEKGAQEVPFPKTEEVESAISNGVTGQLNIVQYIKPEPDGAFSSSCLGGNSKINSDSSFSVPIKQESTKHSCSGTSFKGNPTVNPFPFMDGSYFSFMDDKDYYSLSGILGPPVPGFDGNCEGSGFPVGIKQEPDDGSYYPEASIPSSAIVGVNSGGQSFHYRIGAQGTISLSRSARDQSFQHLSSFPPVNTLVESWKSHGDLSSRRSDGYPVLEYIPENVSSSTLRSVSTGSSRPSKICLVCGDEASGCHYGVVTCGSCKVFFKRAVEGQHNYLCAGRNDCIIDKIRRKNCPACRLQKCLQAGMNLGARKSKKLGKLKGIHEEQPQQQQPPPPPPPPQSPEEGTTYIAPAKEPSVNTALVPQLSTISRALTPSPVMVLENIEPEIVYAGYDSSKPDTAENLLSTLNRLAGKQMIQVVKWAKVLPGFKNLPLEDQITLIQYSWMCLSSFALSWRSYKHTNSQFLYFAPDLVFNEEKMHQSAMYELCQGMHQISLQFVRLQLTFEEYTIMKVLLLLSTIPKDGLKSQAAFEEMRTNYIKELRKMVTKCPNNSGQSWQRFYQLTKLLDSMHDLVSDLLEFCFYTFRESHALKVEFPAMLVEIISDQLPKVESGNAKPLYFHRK
Method: as §1
5. Determination of Antimineralocorticoid Action by Means of Transactivation Tests:
The antimineralocorticoid activity of the test substances was determined as for the transactivation tests described above.
The following modifications were undertaken: In this case reporter cell lines were used (MDCK cells) that express the human mineralocorticoid receptor, and transiently contain a reporter construct that contains luciferase under the control of a steroid hormone-responsive promoter.

[4] = PC-3, read-out: Androgen receptor Agonism efficacy
[5] = PC-3, read-out: Androgen receptor Antagonism efficacy
[6] = MDCK cells, with 1 nM aldosterone, read-out: Mineralocorticoid receptor Antagonism IC50
[7] = MDCK cells, with 1 nM aldosterone

| SMILES | Androgen receptor Competition factor [1] | EC50 [2] [nM] | Emax [2, 4] [%] | Emax [2, 5] [%] | IC50 [3] [nM] | Emax ([3]; MDCK) [%] | IC50 [2] [nM] | IC50 [3, 6] [nM] | Emax [3, 7] [%] |
| --- | --- | --- | --- | --- | --- | --- | --- | --- | --- |
| CC[C@]12CC[C@H]3[C@@H]([C@H]4C[C@H]4C4=CC(=O)CC[C@@H]43)[C@@H]1[C@@H]1C[C@@H]1[C@@]21C=CC(=O)O1 [Example 1, 6β,7β;15β,16β-Bismethylene-17β-hydroxy-18-methyl-19-nor-17α-pregna-4,20(Z)-dien-3-one-21-carboxylic acid γ-lactone] | 30.6 | 100 | 46.3 | 5 | 10 | 79.5 | – | – | – |
| CC[C@]12CC[C@H]3[C@@H]([C@@H]4C[C@@H]4C4=CC(=O)CC[C@@H]43)[C@@H]1[C@@H]1C[C@@H]1[C@@]21C=CC(=O)O1 [Example 2, 6α,7α;15β,16β-Bismethylene-17β-hydroxy-18-methyl-19-nor-17α-pregna-4,20(Z)-dien-3-one-21-carboxylic acid γ-lactone] | 49.6 | 130 | 32.6 | 5 | 230 | 112 | – | – | – |
| CC[C@]12CC[C@H]3[C@@H](C=CC4=CC(=O)CC[C@@H]43)[C@@H]1[C@@H]1C[C@@H]1[C@@]21C=CC(=O)O1 [Example 3, 17β-Hydroxy-18-methyl-15β,16β-methylene-19-nor-17α-pregna-4,6,20(Z)-trien-3-one-21-carboxylic acid γ-lactone] | 62.9 | 120 | 25.4 | 5 | 22 | 97.6 | – | – | – |
| CC[C@]12CC[C@H]3[C@H]([C@@H]1[C@@H]1C[C@@H]1[C@@]21C=CC(=O)O1)[C@H](C)CC1=CC(=O)CC[C@@H]13 [Example 4A, 7α,18-Bismethyl-17β-hydroxy-15β,16β-methylene-19-nor-17α-pregna-4,20(Z)-dien-3-one-21-carboxylic acid γ-lactone] | 2.6 | 3 | 97.5 | 5 | 3 | 99.9 | – | – | – |
| CC[C@@H]1CC2=CC(=O)CC[C@@H]2[C@H]2CC[C@@]3(CC)[C@@H]([C@@H]4C[C@@H]4[C@@]34C=CC(=O)O4)[C@H]12 [Example 5A, 17β-Hydroxy-7α-ethyl-18-methyl-15β,16β-methylene-19-nor-17α-pregna-4,20(Z)-dien-3-one-21-carboxylic acid γ-lactone] | 4.1 | 8.3 | 73 | 5 | – | – | – | – | – |
| C=C[C@@H]1CC2=CC(=O)CC[C@@H]2[C@H]2CC[C@@]3(CC)[C@@H]([C@@H]4C[C@@H]4[C@@]34C=CC(=O)O4)[C@@H]21 [Example 6A, 17β-Hydroxy-7α-vinyl-18-methyl-15β,16β-methylene-19-nor-17α-pregna-4,20(Z)-dien-3-one-21-carboxylic acid γ-lactone] | 1.7 | 0.98 | 118 | 5 | 9 | 102 | – | – | – |
| CC[C@]12CC[C@H]3[C@H]([C@@H]1[C@@H]1C[C@@H]1[C@@]21C=CC(=O)O1)[C@H](C1CC1)CC1=CC(=O)CC[C@@H]13 [Example 7A, 17β-Hydroxy-7α-cyclopropyl-18-methyl-15β,16β-methylene-19-nor-17α-pregna-4,20(Z)-dien-3-one-21-carboxylic acid γ-lactone] | 5.2 | 33 | 62.6 | 5 | 77 | 102 | – | – | – |
| CC[C@]12CC[C@H]3[C@@H]([C@H]4C[C@H]4C4=C(Cl)C(=O)CC[C@@H]43)[C@@H]1[C@@H]1C[C@@H]1[C@@]21C=CC(=O)O1 [Example 8, 6β,7β;15β,16β-Bismethylene-4-chloro-17β-hydroxy-18-methyl-19-nor-17α-pregna-4,20(Z)-dien-3-one-21-carboxylic acid γ-lactone] | 240.0 | 250 | 32.9 | 22.9 | – | – | 130 | 960 | 31.1 |
| CC[C@]12CC[C@H]3[C@@H](CCC4=CC(=O)CC[C@@H]43)[C@@H]1[C@@H]1C[C@@H]1[C@@]21C=CC(=O)O1 [Example 9, 17β-Hydroxy-18-methyl-15β,16β-methylene-19-nor-17α-pregna-4,20(Z) dien-3-one-21-carboxylic acid γ-lactone] | 5.6 | 4.7 | 96.2 | 5 | 3 | 27.8 | – | – | – |
| CC[C@]12CC[C@H]3[C@@H](C[C@@H](CO)C4=CC(=O)CC[C@@H]43)[C@@H]1[C@@H]1C[C@@H]1[C@@]21C=CC(=O)O1 [Example 10, 17β-Hydroxy-6β-hydroxymethylene-18-methyl-15β,16β-methylene-19-nor-17α-pregna-4,20(Z)-dien-3-one-21-carboxylic acid γ-lactone] | 1000.0 | 130 | 17.9 | 15.6 | – | – | 160 | 110 | 92.7 |
| C[C@]12CC[C@H]3[C@@H](CCC4=CC(=O)CC[C@@H]43)[C@@H]1[C@H]1C[C@H]1[C@@]21C=CC(=O)O1 [Example 12, 17β-Hydroxy-15α,16α-methylene-19-nor-17α-pregna-4,20(Z)-dien-3-one-21-carboxylic acid γ-lactone] | 16.5 | 130 | 14.9 | 61.7 | 100 | 71.4 | 86 | – | – |
